According to patent publication US8846710B2, “Method of preferentially inducing the biosynthesis of interferon” (3M Innovative Properties Company, priority 2005, dated 2014):

What was measured:
[1] = test system: tumor necrosis factor (α) (TNF-α); assay: Cytokine induction in human cells: TNF-α secreted by PBMC into culture media (ORIGEN M-Series immunoassay); assay type: cell-based; parameters: key to Maximal Response (pg/mL) TNF / Maximal Response TNF: If any negative values result from background subtraction, the reading is reported as “*”, and is noted as not reliably detectable; conditions: for Maximal Response (pg/mL) TNF: maximal response in dose response curve; for Maximal Response (pg/mL) TNF / Maximal Response TNF: median; for Maximal Response TNF / Minimum Effective Concentration TNF / minimal effective concentration: human PBMC; for Minimum Effective Concentration TNF: median where tested in more than one experiment; for minimal effective concentration: lowest tested concentration inducing TNF-α over usually 40 pg/mL, median where more than one experiment, read-out: Minimum Effective Concentration (μM) TNF
Outline: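 Human donor PBMC (final 2×10^6 cells/mL) were incubated 18 to 24 hours at 37° C with compound, usually 30-0.014 μM in 3-fold steps, ≤1% DMSO. Supernatant TNF-α was measured by ORIGEN immunoassay, background-subtracted and reference-adjusted; minimum effective concentration was the lowest concentration exceeding a fixed cytokine threshold.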

[2] = test system: interferon (α) (IFN-α); assay: Cytokine induction in human cells: IFN-α secreted by PBMC into culture media (ELISA); assay type: cell-based; parameters: key to Maximal Response (pg/mL) IFN: If any negative values result from background subtraction, the reading is reported as “*”, and is noted as not reliably detectable; conditions: for Maximal Response (pg/mL) IFN: maximal response in dose response curve, median; for Maximal Response IFN / Minimum Effective Concentration IFN / minimal effective concentration: human PBMC; for Maximal Response IFN / Minimum Effective Concentration IFN: median where tested in more than one experiment; for minimal effective concentration: lowest tested concentration inducing IFN-α over usually 20 pg/mL, median where more than one experiment, read-out: Minimum Effective Concentration (μM) IFN
Outline: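 Human donor PBMC, 2×10^6 cells/mL final in RPMI complete, treated 18–24 h at 37 °C, 5% CO2 with 3-fold dilutions (usually 30-0.014 μM), DMSO ≤1%. Supernatant IFN-α by multi-subtype sandwich ELISA, background-subtracted and reference-adjusted; minimum effective concentration = lowest concentration exceeding usually 20 pg/mL.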

[3] = Table 8, background-subtracted, reference-adjusted
[4] = Table 11, * = TNF below experimental background of 40 pg/mL
[5] = Table 10, * = below experimental background level

CC(C)(O)Cn1c(CCO)nc2c(N)nc3cccnc3c21 [Example 149, 1-[4-Amino-2-(2-hydroxyethyl)-1H-imidazo[4,5-c][1,5]naphthyridin-1-yl]-2-methylpropan-2-ol]
Maximal Response (pg/mL) TNF [1, 3]: 342 pg/mL | Maximal Response TNF ([1]; Table 12, * = below the experimental background of 40 pg/mL): 331 pg/mL | Maximal Response (pg/mL) IFN [2, 3]: 1849 pg/mL | Maximal Response IFN ([2]; Table 12): 2063 pg/mL

CCOCc1nc2c(N)nc3ccccc3c2n1CC(C)(C)NC(=O)C1CCCCC1 [Analog 93]
Minimum Effective Concentration TNF ([1]; Table 11): 0.37 µM | Maximal Response TNF [1, 4]: 12173 pg/mL | Maximal Response IFN ([2]; Table 11): 1052 pg/mL | Minimum Effective Concentration IFN ([2]; Table 11): 0.37 µM

CCc1nc2c(N)nc3ccccc3c2n1CCCNS(C)(=O)=O [Analog 59]
Minimum Effective Concentration TNF ([1]; Table 11): 30 µM | Maximal Response TNF [1, 4]: 238 pg/mL | Maximal Response IFN ([2]; Table 11): 1912 pg/mL | Minimum Effective Concentration IFN ([2]; Table 11): 1.11 µM

Nc1nc2cc(-c3ccncc3)ccc2c2c1nc(CCO)n2CCCN1CCCC1=O [Example 161]
minimal effective concentration ([1]; Table 10): >30 µM | Maximal Response (pg/mL) TNF [1, 5]: * | minimal effective concentration ([2]; Table 10): >30 µM | Maximal Response (pg/mL) IFN [2, 5]: *

CC(C)Cn1c(CCO)nc2c(N)nc3cc(-c4cccnc4)ccc3c21 [Example 158]
Maximal Response (pg/mL) TNF [1, 5]: 42 pg/mL | minimal effective concentration ([2]; Table 10): 0.37 µM

CC(C)CC(=O)NCCn1c(CCO)nc2c(N)nc3ccccc3c21 [Example 138]
Minimum Effective Concentration TNF ([1]; Table 11): >30 µM | Maximal Response TNF [1, 4]: * | Maximal Response IFN ([2]; Table 11): 36 pg/mL | Minimum Effective Concentration IFN ([2]; Table 11): 3.33 µM

COCCc1nc2c(N)nc3ccccc3c2n1CCNC(=O)CC(C)C [Analog 106]
Minimum Effective Concentration TNF ([1]; Table 11): 3.33 µM | Maximal Response TNF [1, 4]: 5694 pg/mL | Maximal Response IFN ([2]; Table 11): 1204 pg/mL | Minimum Effective Concentration IFN ([2]; Table 11): 0.12 µM

CCc1nc2c(N)nc3ccccc3c2n1CC(C)(C)CNS(C)(=O)=O [Analog 64]
Minimum Effective Concentration TNF ([1]; Table 11): 3.33 µM | Maximal Response TNF [1, 4]: 1453 pg/mL | Maximal Response IFN ([2]; Table 11): 1431 pg/mL | Minimum Effective Concentration IFN ([2]; Table 11): 0.12 µM

Cc1nc2c(N)nc3ccccc3c2n1CCCCCS(C)(=O)=O [Analog 73]
Minimum Effective Concentration TNF ([1]; Table 11): 3.33 µM | Maximal Response TNF [1, 4]: 771 pg/mL | Maximal Response IFN ([2]; Table 11): 1294 pg/mL | Minimum Effective Concentration IFN ([2]; Table 11): 0.37 µM

CCOCc1nc2c(N)nc3ccccc3c2n1CCCN [Analog 85]
Minimum Effective Concentration TNF ([1]; Table 11): 30 µM | Maximal Response TNF [1, 4]: 411 pg/mL | Maximal Response IFN ([2]; Table 11): 1325 pg/mL | Minimum Effective Concentration IFN ([2]; Table 11): 0.12 µM

COCCc1nc2c(N)nc3ccccc3c2n1CCCNC(=O)N1CCOCC1 [Analog 89]
Minimum Effective Concentration TNF ([1]; Table 11): 0.014 µM | Maximal Response TNF [1, 4]: 6169 pg/mL | Maximal Response IFN ([2]; Table 11): 5915 pg/mL | Minimum Effective Concentration IFN ([2]; Table 11): 0.014 µM

CCCc1nc2c(N)nc3ccccc3c2n1CC(C)(C)NC(=O)NC(C)C [Analog 107]
Minimum Effective Concentration TNF ([1]; Table 11): 3.33 µM | Maximal Response TNF [1, 4]: 6363 pg/mL | Maximal Response IFN ([2]; Table 11): 1428 pg/mL | Minimum Effective Concentration IFN ([2]; Table 11): 1.11 µM

COCCc1nc2c(N)nc3ccccc3c2n1CCCCCCCCNC(=O)Nc1ccccc1 [Analog 117]
Minimum Effective Concentration TNF ([1]; Table 11): 0.12 µM | Maximal Response TNF [1, 4]: 1372 pg/mL | Maximal Response IFN ([2]; Table 11): 1257 pg/mL | Minimum Effective Concentration IFN ([2]; Table 11): 0.014 µM

COCCc1nc2c(N)nc3ccccc3c2n1CCCCNS(=O)(=O)c1ccc(F)cc1 [Analog 113]
Minimum Effective Concentration TNF ([1]; Table 11): 0.04 µM | Maximal Response TNF [1, 4]: 3786 pg/mL | Maximal Response IFN ([2]; Table 11): 6032 pg/mL | Minimum Effective Concentration IFN ([2]; Table 11): 0.014 µM

COCCc1nc2c(N)nc3cc(-c4ccncc4)ccc3c2n1CCCN1CCCC1=O [Analog 40]
minimal effective concentration ([1]; Table 10): 3.33 µM | Maximal Response (pg/mL) TNF [1, 5]: 943 pg/mL | minimal effective concentration ([2]; Table 10): 0.37 µM | Maximal Response (pg/mL) IFN [2, 5]: 1179 pg/mL

Nc1nc2ccccc2c2c1nc(CCO)n2CCCCCCCCNC(=O)c1ccccc1 [Example 121]
Minimum Effective Concentration TNF ([1]; Table 11): 3.33 µM | Maximal Response TNF [1, 4]: 180 pg/mL | Maximal Response IFN ([2]; Table 11): 2441 pg/mL | Minimum Effective Concentration IFN ([2]; Table 11): 0.37 µM

CCCc1nc2c(N)nc3ccccc3c2n1CC(C)(C)CNS(C)(=O)=O [Analog 65]
Minimum Effective Concentration TNF ([1]; Table 11): 10 µM | Maximal Response TNF [1, 4]: 1929 pg/mL | Maximal Response IFN ([2]; Table 11): 1711 pg/mL | Minimum Effective Concentration IFN ([2]; Table 11): 0.12 µM

CCc1nc2c(N)nc3cc(-c4cncc(CO)c4)ccc3c2n1CC(C)(C)O [Analog 15]
minimal effective concentration ([1]; Table 10): 1.11 µM | Maximal Response (pg/mL) TNF [1, 5]: 10087 pg/mL | minimal effective concentration ([2]; Table 10): 0.014 µM | Maximal Response (pg/mL) IFN [2, 5]: 2084 pg/mL

Cc1nc2c(N)nc3ccccc3c2n1CC(C)(C)CNS(C)(=O)=O [Analog 63]
Minimum Effective Concentration TNF ([1]; Table 11): 10 µM | Maximal Response TNF [1, 4]: 805 pg/mL | Maximal Response IFN ([2]; Table 11): 1019 pg/mL | Minimum Effective Concentration IFN ([2]; Table 11): 0.37 µM

CC(C)(CNC(=O)c1ccccc1)Cn1c(CCO)nc2c(N)nc3ccccc3c21 [Example 124]
Minimum Effective Concentration TNF ([1]; Table 11): 3.33 µM | Maximal Response TNF [1, 4]: 1446 pg/mL | Maximal Response IFN ([2]; Table 11): 3980 pg/mL | Minimum Effective Concentration IFN ([2]; Table 11): 0.12 µM

CCCCCCCCCCCCCCCC(=O)NCCOCCn1c(CCO)nc2c(N)nc3ccccc3c21 [Example 140]
Minimum Effective Concentration TNF ([1]; Table 11): >30 µM | Maximal Response TNF [1, 4]: * | Maximal Response IFN ([2]; Table 11): 673 pg/mL | Minimum Effective Concentration IFN ([2]; Table 11): 1.11 µM

CCOCc1nc2c(N)nc3cc(-c4cncc(CO)c4)ccc3c2n1CC1CCCCC1 [Analog 45]
minimal effective concentration ([1]; Table 10): 1.11 µM | Maximal Response (pg/mL) TNF [1, 5]: 2865 pg/mL | minimal effective concentration ([2]; Table 10): 0.014 µM | Maximal Response (pg/mL) IFN [2, 5]: 1062 pg/mL

CS(=O)(=O)NCCCCn1c(CO)nc2c(N)nc3ccccc3c21 [Example 368, N-[4-(4-amino-2-hydroxymethyl-1H-imidazo[4,5-c]quinolin-1-yl)butyl]methanesulfonamide]
Maximal Response TNF [1, 4]: * | Maximal Response IFN ([2]; Table 11): 7220 pg/mL

Nc1nc2ccccc2c2c1nc(CCO)n2CCCCNS(=O)(=O)c1ccc(F)cc1 [Example 112]
Minimum Effective Concentration TNF ([1]; Table 11): 30 µM | Maximal Response TNF [1, 4]: 76 pg/mL | Maximal Response IFN ([2]; Table 11): 8361 pg/mL | Minimum Effective Concentration IFN ([2]; Table 11): 1.11 µM

CCOCc1nc2c(N)nc3cc(-c4cccc(C)c4)ccc3c2n1CC(C)(C)O [Analog 41]
minimal effective concentration ([1]; Table 10): 0.12 µM | Maximal Response (pg/mL) TNF [1, 5]: 10184 pg/mL | minimal effective concentration ([2]; Table 10): 0.014 µM | Maximal Response (pg/mL) IFN [2, 5]: 541 pg/mL

CCc1nc2c(N)nc3ccccc3c2n1CCOCCN(C)S(C)(=O)=O [Analog 78]
Minimum Effective Concentration TNF ([1]; Table 11): 1.11 µM | Maximal Response TNF [1, 4]: 2525 pg/mL | Maximal Response IFN ([2]; Table 11): 1803 pg/mL | Minimum Effective Concentration IFN ([2]; Table 11): 0.12 µM

CCc1nc2c(N)nc3ccccc3c2n1CCCCNS(C)(=O)=O [Analog 49]
Minimum Effective Concentration TNF ([1]; Table 11): 3.33 µM | Maximal Response TNF [1, 4]: 679 pg/mL | Maximal Response IFN ([2]; Table 11): 2712 pg/mL | Minimum Effective Concentration IFN ([2]; Table 11): 0.04 µM

CCCC(=O)NCCCCn1c(CO)nc2c(N)nc3cc(-c4cccnc4)ccc3c21 [Example 196]
minimal effective concentration ([1]; Table 10): > 30 µM | minimal effective concentration ([2]; Table 10): 0.12 µM

COCCc1nc2c(N)nc3ccccc3c2n1CCCNC(=O)c1cc2ccccc2cn1 [Analog 110]
Minimum Effective Concentration TNF ([1]; Table 11): 1.11 µM | Maximal Response TNF [1, 4]: 6169 pg/mL | Maximal Response IFN ([2]; Table 11): 647 pg/mL | Minimum Effective Concentration IFN ([2]; Table 11): 0.12 µM
